# Experimental data taken from US20090068255A1, “USE OF MATRIX METALLOPROTEINASE INHIBITORS IN SKIN CARE” (priority 2007, published 2009).
# “Also recorded” adds a separate entry of the source.
# Experiments:
# [1] = tested on: female subjects 40-65 years of age with mild to moderate skin aging; experiment: Double-blind, placebo-controlled, randomized 16-week clinical study; dermatologist assessment of individual facial skin appearance parameters (scale 0-9); format: in vivo, human; conditions: 16 weeks
# Description: Photoaging of the skin typically manifests itself as worsening appearance of the skin, including an increased appearance of mottled hyperpigmentation, wrinkles, coarseness of skin, redness, and pores. In this study, the MMP inhibitor,
# was evaluated in female subjects 40-65 years of age with mild to moderate skin aging to determine its benefit on the appearance of aging.
# The study was designed as a double-blind, placebo-controlled, randomized 16-week clinical study to evaluate the benefit of the MMP inhibitor,
# in reducing the appearance of aging. Subjects enrolled in the study were between 40-65 years of age with mild to moderate skin age scores. A randomization table was used to determine which subjects would receive the study cream and which would receive the placebo cream. Subjects were instructed to apply the assigned cream to their face twice a day (once in the morning and once in the evening) after their face was washed and dried. A pea-sized drop of the test article was applied to each quadrant of the face to form a thin layer over the entire face. Follow-up visits were scheduled at 2, 4, 8, 12, and 16 weeks after the cream application was started.
# Subjects were instructed to apply the test or placebo cream to the face twice daily (once in the morning and once in the evening) over the entire 16 week study period. […]
# The effect of the MMP inhibitor on the subject's skin was assessed using the Physician Global Assessment of facial skin appearance and the assessment of the following individual skin appearance parameters on a scale from 0 to 9: fine wrinkling, mottled hyperpigmentation, age spots, tactile roughness, coarse wrinkling, telangiectasia, pore size, sallow tone, and sag. […]
# A Physician Global Assessment of facial skin appearance using the Griffiths scale (0-8) was performed at all study visits. […] An assessment of individual skin parameters including fine wrinkling, mottled hyperpigmentation, age spots, tactile roughness, coarse wrinkling, redness, pore size, sollowness, and sag was scored on a scale from 0-9 at all study visits based on the following table: […]
# [2] = tested on: female subjects 40-65 years of age with mild to moderate skin aging; experiment: Profilometry of silicone replicas of the crow's feet area in the 16-week clinical study; format: in vivo, human; conditions: replicas at day 0, week 8, week 16, p<0.05
# Description: The effect of the MMP inhibitor on the subject's skin was assessed using the Physician Global Assessment of facial skin appearance and the assessment of the following individual skin appearance parameters on a scale from 0 to 9: fine wrinkling, mottled hyperpigmentation, age spots, tactile roughness, coarse wrinkling, telangiectasia, pore size, sallow tone, and sag. The cosmetic appearance of telangiectasia may be perceived as increased facial redness. Other criteria were also used including profilometry of crow's feet region using silicone replicas.
# Silicone replicas of the crow's feet area (“profilometry”) were made at day 0, week 8, and week 16.
# For the silicone replicas, the data used in the statistical analyses was the change from baseline. Within-treatment analysis of the skin replica parameters changes from baseline were evaluated using Student's t-test for paired data. Between-treatment analyses were conducted utilizing analysis of covariance with the baseline value as the covariate.
structure (smiles),measurement,setting,value
O=C(NCc1ccc(-c2ccccc2)cc1)c1occc(=O)c1O [MMP inhibitor],"appearance of telangiectasia (redness), change from baseline relative to the placebo formulation","[1]; cream of Example 27 (0.20% MMP inhibitor) applied to the face twice daily, p<0.05 vs placebo",reduce the appearance of telangiectasia
same,"appearance of pore size, active vs placebo group","[1]; cream of Example 27 applied to the face twice daily, Proc GLM time x treatment interaction p-value 0.02",improved appearance; also recorded: trending toward improvement
same,"appearance of coarse wrinkles, active vs placebo group","[1]; cream of Example 27 applied to the face twice daily, Proc GLM time x treatment interaction p-value 0.06",improved appearance of coarse wrinkles; also recorded: trending toward improvement
same,"coarse wrinkle depth and roughness by profilometry of silicone replica, treatment vs placebo group",[2],significant improvement; also recorded: consistent with the improvement of coarse wrinkle scores
